In the NIST ThermoML archive (doi:10.1021/acs.jced.7b00841):
± gives the expanded uncertainty stated by the source.

Conditions: for mass density: Liquid, Vibrating tube method; for specific volume: Gas, isochoric method

FC(F)(F)/C=C/Cl [(E)-1-chloro-3,3,3-trifluoroprop-1-ene]
Conditions | mass density [kg/m3] | specific volume [m3/kg]
283.14 K, 29999 kPa | 1358.6 ± 1 | –
283.15 K, 133 kPa | 1297.8 ± 0.8 | –
283.15 K, 500 kPa | 1298.7 ± 0.8 | –
283.15 K, 5000 kPa | 1309.8 ± 0.9 | –
283.15 K, 10000 kPa | 1321 ± 0.9 | –
283.15 K, 15000 kPa | 1331.4 ± 0.9 | –
283.15 K, 20000 kPa | 1341.1 ± 0.9 | –
283.15 K, 35000 kPa | 1366.8 ± 1.1 | –
283.16 K, 1000 kPa | 1300 ± 0.8 | –
283.16 K, 2500 kPa | 1303.7 ± 0.8 | –
283.16 K, 25000 kPa | 1350.1 ± 1 | –
293.14 K, 499 kPa | 1275.3 ± 0.8 | –
293.14 K, 1000 kPa | 1276.7 ± 0.8 | –
293.14 K, 2500 kPa | 1280.9 ± 0.8 | –
293.14 K, 5000 kPa | 1287.6 ± 0.8 | –
293.14 K, 15000 kPa | 1311.3 ± 0.9 | –
293.14 K, 20000 kPa | 1321.7 ± 0.9 | –
293.14 K, 35000 kPa | 1349.2 ± 1 | –
293.15 K, 151 kPa | 1274.3 ± 0.8 | –
293.15 K, 9999 kPa | 1299.9 ± 0.9 | –
293.15 K, 25000 kPa | 1331.4 ± 1 | –
293.16 K, 30000 kPa | 1340.6 ± 1 | –
303.15 K, 250 kPa | 1250.3 ± 0.8 | –
303.15 K, 501 kPa | 1251.2 ± 0.8 | –
303.15 K, 1001 kPa | 1252.7 ± 0.8 | –
303.15 K, 2499 kPa | 1257.4 ± 0.8 | –
303.15 K, 5000 kPa | 1264.8 ± 0.8 | –
303.15 K, 35000 kPa | 1331.1 ± 1 | –
303.16 K, 10001 kPa | 1278.4 ± 0.9 | –
303.16 K, 15003 kPa | 1290.7 ± 0.9 | –
303.16 K, 20002 kPa | 1301.9 ± 0.9 | –
303.16 K, 25001 kPa | 1312.3 ± 0.9 | –
303.16 K, 30000 kPa | 1322 ± 1 | –
308.15 K, 167 kPa | – | 0.11 ± 0.0005
313.14 K, 35000 kPa | 1313.5 ± 1 | –
313.15 K, 170 kPa | – | 0.1101 ± 0.0005
313.15 K, 351 kPa | 1225.4 ± 0.8 | –
313.15 K, 501 kPa | 1226 ± 0.8 | –
313.15 K, 1000 kPa | 1227.8 ± 0.8 | –
313.15 K, 2500 kPa | 1233.1 ± 0.8 | –
313.15 K, 5000 kPa | 1241.3 ± 0.8 | –
313.15 K, 10000 kPa | 1256.4 ± 0.9 | –
313.15 K, 15000 kPa | 1269.9 ± 0.9 | –
313.15 K, 19999 kPa | 1282.1 ± 0.9 | –
313.15 K, 25000 kPa | 1293.4 ± 0.9 | –
313.15 K, 30000 kPa | 1303.8 ± 1 | –
318.15 K, 174 kPa | – | 0.1101 ± 0.0005
323.15 K, 177 kPa | – | 0.1101 ± 0.0005
323.15 K, 274 kPa | – | 0.0684 ± 0.0005
323.15 K, 500 kPa | 1199.9 ± 0.8 | –
323.15 K, 1000 kPa | 1202 ± 0.8 | –
323.15 K, 2500 kPa | 1208 ± 0.8 | –
323.15 K, 5000 kPa | 1217.4 ± 0.8 | –
323.15 K, 10000 kPa | 1234.3 ± 0.9 | –
323.15 K, 15000 kPa | 1249.2 ± 0.9 | –
323.15 K, 19999 kPa | 1262.7 ± 0.9 | –
323.15 K, 24999 kPa | 1274.9 ± 0.9 | –
323.15 K, 30000 kPa | 1286.3 ± 1 | –
323.15 K, 35000 kPa | 1296.8 ± 1 | –
328.15 K, 180 kPa | – | 0.1101 ± 0.0004
328.15 K, 280 kPa | – | 0.0684 ± 0.0004
333.14 K, 2500 kPa | 1182 ± 0.8 | –
333.14 K, 20000 kPa | 1242.9 ± 0.9 | –
333.14 K, 25003 kPa | 1256.2 ± 0.9 | –
333.14 K, 30002 kPa | 1268.3 ± 0.9 | –
333.14 K, 35000 kPa | 1279.5 ± 1 | –
333.15 K, 183 kPa | – | 0.1101 ± 0.0004
333.15 K, 285 kPa | – | 0.0684 ± 0.0003
333.15 K, 372 kPa | – | 0.0508 ± 0.0002
333.15 K, 500 kPa | 1172.6 ± 0.8 | –
333.15 K, 1000 kPa | 1175.1 ± 0.8 | –
333.15 K, 5000 kPa | 1192.7 ± 0.8 | –
333.15 K, 10000 kPa | 1211.7 ± 0.8 | –
333.15 K, 15001 kPa | 1228.2 ± 0.9 | –
338.15 K, 186 kPa | – | 0.1102 ± 0.0004
338.15 K, 290 kPa | – | 0.0685 ± 0.0003
338.15 K, 380 kPa | – | 0.0509 ± 0.0002
338.15 K, 415 kPa | – | 0.0461 ± 0.0002
343.15 K, 189 kPa | – | 0.1102 ± 0.0004
343.15 K, 296 kPa | – | 0.0685 ± 0.0003
343.15 K, 387 kPa | – | 0.0509 ± 0.0002
343.15 K, 423 kPa | – | 0.0461 ± 0.0002
343.15 K, 458 kPa | – | 0.0419 ± 0.0002
343.15 K, 700 kPa | 1145 ± 0.8 | –
343.15 K, 1000 kPa | 1146.6 ± 0.8 | –
343.15 K, 2500 kPa | 1154.6 ± 0.8 | –
343.15 K, 5000 kPa | 1166.8 ± 0.8 | –
343.15 K, 10000 kPa | 1188.1 ± 0.8 | –
343.15 K, 15000 kPa | 1206.2 ± 0.9 | –
343.15 K, 20003 kPa | 1222.1 ± 0.9 | –
343.15 K, 25000 kPa | 1236.4 ± 0.9 | –
343.15 K, 30001 kPa | 1249.4 ± 0.9 | –
343.15 K, 35002 kPa | 1261.5 ± 1 | –
348.15 K, 192 kPa | – | 0.1102 ± 0.0004
348.15 K, 301 kPa | – | 0.0685 ± 0.0003
348.15 K, 394 kPa | – | 0.0509 ± 0.0002
348.15 K, 431 kPa | – | 0.0462 ± 0.0002
348.15 K, 468 kPa | – | 0.0419 ± 0.0002
348.15 K, 550 kPa | – | 0.0349 ± 0.0002
353.15 K, 195 kPa | – | 0.1102 ± 0.0004
353.15 K, 306 kPa | – | 0.0685 ± 0.0003
353.15 K, 401 kPa | – | 0.0509 ± 0.0002
353.15 K, 439 kPa | – | 0.0462 ± 0.0002
353.15 K, 477 kPa | – | 0.042 ± 0.0002
353.15 K, 562 kPa | – | 0.0349 ± 0.0002
353.15 K, 639 kPa | – | 0.0297 ± 0.0002
353.15 K, 801 kPa | 1114.4 ± 0.8 | –
353.15 K, 1000 kPa | 1116.5 ± 0.8 | –
353.15 K, 2500 kPa | 1125.4 ± 0.8 | –
353.15 K, 5000 kPa | 1139.8 ± 0.8 | –
353.15 K, 10000 kPa | 1163.9 ± 0.8 | –
353.15 K, 15000 kPa | 1184.3 ± 0.8 | –
353.15 K, 20000 kPa | 1201.7 ± 0.9 | –
353.15 K, 25000 kPa | 1217.2 ± 0.9 | –
353.15 K, 30000 kPa | 1231.2 ± 0.9 | –
353.15 K, 34999 kPa | 1243.9 ± 0.9 | –
358.15 K, 198 kPa | – | 0.1103 ± 0.0004
358.15 K, 311 kPa | – | 0.0685 ± 0.0003
358.15 K, 409 kPa | – | 0.0509 ± 0.0002
358.15 K, 447 kPa | – | 0.0462 ± 0.0002
358.15 K, 486 kPa | – | 0.042 ± 0.0002
358.15 K, 573 kPa | – | 0.0349 ± 0.0002
358.15 K, 654 kPa | – | 0.0297 ± 0.0002
363.14 K, 20001 kPa | 1180.8 ± 0.9 | –
363.14 K, 35000 kPa | 1226.2 ± 0.9 | –
363.15 K, 202 kPa | – | 0.1103 ± 0.0004
363.15 K, 316 kPa | – | 0.0685 ± 0.0003
363.15 K, 416 kPa | – | 0.0509 ± 0.0002
363.15 K, 455 kPa | – | 0.0462 ± 0.0002
363.15 K, 494 kPa | – | 0.042 ± 0.0002
363.15 K, 584 kPa | – | 0.0349 ± 0.0002
363.15 K, 667 kPa | – | 0.0297 ± 0.0002
363.15 K, 1200 kPa | 1085.8 ± 0.8 | –
363.15 K, 2500 kPa | 1095.5 ± 0.8 | –
363.15 K, 5000 kPa | 1112.1 ± 0.8 | –
363.15 K, 10000 kPa | 1139.5 ± 0.8 | –
363.15 K, 15001 kPa | 1161.9 ± 0.8 | –
363.15 K, 25001 kPa | 1197.5 ± 0.9 | –
363.15 K, 30000 kPa | 1212.5 ± 0.9 | –
368.15 K, 205 kPa | – | 0.1103 ± 0.0004
368.15 K, 321 kPa | – | 0.0685 ± 0.0003
368.15 K, 423 kPa | – | 0.0509 ± 0.0002
368.15 K, 463 kPa | – | 0.0462 ± 0.0002
368.15 K, 503 kPa | – | 0.042 ± 0.0002
368.15 K, 594 kPa | – | 0.0349 ± 0.0002
368.15 K, 680 kPa | – | 0.0298 ± 0.0002
373.15 K, 208 kPa | – | 0.1103 ± 0.0004
373.15 K, 326 kPa | – | 0.0686 ± 0.0003
373.15 K, 430 kPa | – | 0.0509 ± 0.0002
373.15 K, 470 kPa | – | 0.0462 ± 0.0002
373.15 K, 512 kPa | – | 0.042 ± 0.0002
373.15 K, 605 kPa | – | 0.0349 ± 0.0002
373.15 K, 693 kPa | – | 0.0298 ± 0.0002
